From the supplement of paper PMC11451515

Tested on: P12-Ichikawa
Test: cell viability relative to DMSO control; higher = less cytotoxic
Settings: 48 h
Method in brief: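 Viability is a per-plate percentage relative to DMSO wells, with cell-free wells as background. CellTiter-Glo One luminescence was read after 48 h at 37°C on 1536-well plates (5 μl) of NOMO1 or SEM (500 cells/well) or P12-Ichikawa (1000 cells/well) leukemia cells. The cells had been adapted for at least four passages in each medium and pin-dosed with library compounds in DMSO from 47 μM to 0.79 nM in 11 threefold steps.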

[1] = HPLM + 10% dialyzed FBS, 0.000781 µM
[2] = HPLM + 10% dialyzed FBS, 0.00234 µM
[3] = HPLM + 10% dialyzed FBS, 0.00702 µM
[4] = HPLM + 10% dialyzed FBS, 0.0211 µM
[5] = HPLM + 10% dialyzed FBS, 0.0632 µM
[6] = HPLM + 10% dialyzed FBS, 0.19 µM
[7] = HPLM + 10% dialyzed FBS, 0.569 µM
[8] = HPLM + 10% dialyzed FBS, 1.71 µM
[9] = HPLM + 10% dialyzed FBS, 5.12 µM
[10] = HPLM + 10% dialyzed FBS, 15.4 µM
[11] = HPLM + 10% dialyzed FBS, 46.1 µM
[12] = RPMI 5 mM glucose + 10% FBS, 0.000781 µM
[13] = RPMI 5 mM glucose + 10% FBS, 0.00234 µM
[14] = RPMI 5 mM glucose + 10% FBS, 0.00702 µM
[15] = RPMI 5 mM glucose + 10% FBS, 0.0211 µM
[16] = RPMI 5 mM glucose + 10% FBS, 0.0632 µM
[17] = RPMI 5 mM glucose + 10% FBS, 0.19 µM
[18] = RPMI 5 mM glucose + 10% FBS, 0.569 µM
[19] = RPMI 5 mM glucose + 10% FBS, 1.71 µM
[20] = RPMI 5 mM glucose + 10% FBS, 5.12 µM
[21] = RPMI 5 mM glucose + 10% FBS, 15.4 µM
[22] = RPMI 5 mM glucose + 10% FBS, 46.1 µM
[23] = RPMI 5 mM glucose + 10% dialyzed FBS, 0.000781 µM
[24] = RPMI 5 mM glucose + 10% dialyzed FBS, 0.00234 µM
[25] = RPMI 5 mM glucose + 10% dialyzed FBS, 0.00702 µM
[26] = RPMI 5 mM glucose + 10% dialyzed FBS, 0.0211 µM
[27] = RPMI 5 mM glucose + 10% dialyzed FBS, 0.0632 µM
[28] = RPMI 5 mM glucose + 10% dialyzed FBS, 0.19 µM
[29] = RPMI 5 mM glucose + 10% dialyzed FBS, 0.569 µM
[30] = RPMI 5 mM glucose + 10% dialyzed FBS, 1.71 µM
[31] = RPMI 5 mM glucose + 10% dialyzed FBS, 5.12 µM
[32] = RPMI 5 mM glucose + 10% dialyzed FBS, 15.4 µM
[33] = RPMI 5 mM glucose + 10% dialyzed FBS, 46.1 µM

Compound | cell viability [1] | cell viability [2] | cell viability [3] | cell viability [4] | cell viability [5] | cell viability [6] | cell viability [7] | cell viability [8] | cell viability [9] | cell viability [10] | cell viability [11] | cell viability [12] | cell viability [13] | cell viability [14] | cell viability [15] | cell viability [16] | cell viability [17] | cell viability [18] | cell viability [19] | cell viability [20] | cell viability [21] | cell viability [22] | cell viability [23] | cell viability [24] | cell viability [25] | cell viability [26] | cell viability [27] | cell viability [28] | cell viability [29] | cell viability [30] | cell viability [31] | cell viability [32] | cell viability [33]
CN(C)Cc1ccc(-c2nc3cccc4c3n2CCNC4=O)cc1 | 90.5% | 100% | 105% | 103% | 109% | 102% | 112% | 109% | 108% | 114% | 110% | 92.8% | 96.3% | 94.7% | 108% | 108% | 105% | 106% | 107% | 109% | 109% | 106% | 90.2% | 99.1% | 101% | 109% | 107% | 111% | 107% | 108% | 105% | 102% | 112%
CO[C@H]1C[C@@H]2CC[C@@H](C)[C@@](O)(O2)C(=O)C(=O)N2CCCC[C@H]2C(=O)O[C@H]([C@H](C)C[C@@H]2CC[C@@H](OP(C)(C)=O)[C@H](OC)C2)CC(=O)[C@H](C)/C=C(\C)[C@@H](O)[C@@H](OC)C(=O)[C@H](C)C[C@H](C)/C=C/C=C/C=C/1C |  |  |  |  |  |  |  |  |  |  |  | 119% | 138% | 121% | 126% | 118% | 97.7% | 122% | 96.3% | 88.4% | 100% | 81.4% |  |  |  |  |  |  |  |  |  |  | 
O=[N+]([O-])c1cn2c(n1)OC[C@@H](OCc1ccc(OC(F)(F)F)cc1)C2 | 124% | 126% | 121% | 120% | 120% | 111% | 113% | 111% | 112% | 118% | 110% | 124% | 125% | 138% | 141% | 131% | 132% | 127% | 118% | 105% | 111% | 121% | 120% | 116% | 111% | 126% | 115% | 113% | 113% | 100% | 101% | 109% | 107%
Nc1ccccc1NC(=O)c1ccc(CNc2nccc(-c3cccnc3)n2)cc1 | 106% | 107% | 108% | 113% | 110% | 120% | 113% | 85.6% | 7.68% | 6.63% | 7% | 101% | 106% | 109% | 110% | 111% | 110% | 114% | 71.1% | 9.5% | 6.39% | 6.22% | 109% | 107% | 113% | 122% | 122% | 117% | 110% | 83% | 8.72% | 7.24% | 6.17%
CC(=O)N1CCN(c2ccc(OCc3nn(C)c(C)c3-c3cccc4c(CCCOc5cc(C)c(Cl)c(C)c5)c(C(=O)O)n(Cc5cccnc5)c34)cc2)CC1 | 104% | 113% | 112% | 115% | 114% | 111% | 113% | 107% | 115% | 113% | 39.2% | 105% | 106% | 115% | 118% | 120% | 127% | 116% | 123% | 125% | 126% | 64.9% | 104% | 115% | 115% | 122% | 125% | 121% | 112% | 110% | 118% | 115% | 66.7%
C[C@@H]1C[C@H]2[C@@H]3\C=C(C)/C4=C/C5=C(C[C@]4(C)[C@H]3[C@@H](O)C[C@]2(C)[C@@]1(O)C(=O)COC(C)=O)C=N[N]5C6=CC=CC=C6 | 111% | 107% | 99.2% | 91.8% | 67.8% | 61.6% | 58.1% | 58.7% | 59.6% | 51.4% | 55.8% | 123% | 127% | 98% | 85.1% | 62.3% | 54.6% | 45.6% | 51.5% | 49.2% | 46.5% | 46.9% | 114% | 99.7% | 91.7% | 72.2% | 53.3% | 44.1% | 38% | 39.5% | 38.7% | 38.1% | 32.9%
O=C/1\C=C(/OC(=C1)/C2=C3SC4=C(SC3=CC=C2)C=CC=C4)N5CCOCC5 | 81.4% | 100% | 98.5% | 10.6% | 100% | 103% | 102% | 98.1% | 95.2% | 94.4% | 95% | 84.7% | 92.7% | 96.9% | 11.2% | 103% | 100% | 106% | 104% | 93.1% | 102% | 102% | 83.4% | 94.4% | 97.2% | 23.7% | 95.7% | 84.4% | 99.2% | 99.4% | 96% | 95.7% | 90.8%
COc1cc2nccc(Oc3ccc(NC(=O)C4(C(=O)Nc5ccc(F)cc5)CC4)cc3)c2cc1OC | 114% | 91.5% | 122% | 111% | 115% | 111% | 118% | 113% | 96.3% | 71.7% | 34% | 112% | 112% | 116% | 117% | 119% | 116% | 112% | 114% | 106% | 82.5% | 19.7% | 106% | 118% | 120% | 121% | 123% | 124% | 113% | 113% | 101% | 60.5% | 28.9%
